Data reported in ChEMBL document CHEMBL1201862, “PubChem BioAssay data set” (2004).
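How tested: cells in 96-well plates exposed to compound for 48 hours at five concentrations. GI50: concentration for 50% inhibition of growth.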 The source made the active and inactive calls. Cut-off read from the data, not from the text of the source: active = GI50 up to about 1.1 µM and inactive = higher.

What was measured:
Assay in all cases: NCI anticancer screen, dose series, 48 h
SF-539 = test system: SF-539
786-0 = test system: 786-0
IGROV-1 = test system: IGROV-1
Malme-3M = test system: Malme-3M
K562 = test system: K562
SF-295 = test system: SF-295
NCI-H522 = test system: NCI-H522
UACC-257 = test system: UACC-257
SN12C = test system: SN12C
COLO 205 = test system: COLO 205
U-251 = test system: U-251
HOP-92 = test system: HOP-92
CAKI-1 = test system: CAKI-1
NCI-H226 = test system: NCI-H226
ACHN = test system: ACHN
MDA-MB-231 = test system: MDA-MB-231
MDA-MB-435 = test system: MDA-MB-435
PC-3 = test system: PC-3
Hs-578T = test system: Hs-578T
MDA-N = test system: MDA-N

SMILES	GI50 (SF-539)	GI50 (786-0)	GI50 (IGROV-1)	GI50 (Malme-3M)	GI50 (K562)	GI50 (SF-295)	GI50 (NCI-H522)	GI50 (UACC-257)	GI50 (SN12C)	GI50 (COLO 205)	GI50 (U-251)	GI50 (HOP-92)	GI50 (CAKI-1)	GI50 (NCI-H226)	GI50 (ACHN)	GI50 (MDA-MB-231)	GI50 (MDA-MB-435)	GI50 (PC-3)	GI50 (Hs-578T)	GI50 (MDA-N)
CC(=O)OC1(C)C(=O)OC1(C)C(C)=O (configuration not stated)	> 100 µM (inactive)	> 100 µM (inactive)	> 100 µM (inactive)	> 100 µM (inactive)	> 100 µM (inactive)	> 100 µM (inactive)	> 100 µM (inactive)	> 100 µM (inactive)	> 100 µM (inactive)	> 100 µM (inactive)	> 100 µM (inactive)	> 100 µM (inactive)	> 100 µM (inactive)	> 100 µM (inactive)	> 100 µM (inactive)	–	–	–	–	–
N#Cc1c(=O)c2ccccc2n2c1[nH]c1ccccc12	32.1 µM (inactive)	41 µM (inactive)	16.1 µM (inactive)	–	21.3 µM (inactive)	32.8 µM (inactive)	–	86.1 µM (inactive)	32.3 µM (inactive)	43.1 µM (inactive)	34.1 µM (inactive)	–	35.2 µM (inactive)	34.9 µM (inactive)	58.6 µM (inactive)	54.6 µM (inactive)	54 µM (inactive)	29 µM (inactive)	20.9 µM (inactive)	–
Nc1c(F)c(F)c2c(c1F)N(CCCCCl)c1ccccc1S2	> 100 µM (inactive)	> 100 µM (inactive)	> 100 µM (inactive)	> 100 µM (inactive)	> 100 µM (inactive)	> 100 µM (inactive)	> 100 µM (inactive)	> 100 µM (inactive)	> 100 µM (inactive)	> 100 µM (inactive)	> 100 µM (inactive)	> 100 µM (inactive)	> 100 µM (inactive)	> 100 µM (inactive)	> 100 µM (inactive)	> 100 µM (inactive)	–	> 100 µM (inactive)	> 100 µM (inactive)	–
COC(=O)C1=C(OC(=O)/C(=C/c2ccc(Cl)cc2)c2ccccc2)C(C(=O)OC)[C@@]2(O)[C@@H](C(=O)OC)[C@H](C)C[C@@H]1[C@@H]2C(=O)OC (some centres not stated)	> 100 µM (inactive)	> 100 µM (inactive)	23.6 µM (inactive)	> 100 µM (inactive)	> 100 µM (inactive)	6.79 µM (inactive)	6 µM (inactive)	> 100 µM (inactive)	> 100 µM (inactive)	> 100 µM (inactive)	26.7 µM (inactive)	0.573 µM (active)	> 100 µM (inactive)	> 100 µM (inactive)	> 100 µM (inactive)	> 100 µM (inactive)	> 100 µM (inactive)	37.5 µM (inactive)	37 µM (inactive)	–
CCOC(=O)c1ccc(-n2c(SCC)nc3sc(C)c(C)c3c2=O)cc1	> 100 µM (inactive)	85.9 µM (inactive)	> 100 µM (inactive)	> 100 µM (inactive)	> 100 µM (inactive)	> 100 µM (inactive)	> 100 µM (inactive)	> 100 µM (inactive)	> 100 µM (inactive)	> 100 µM (inactive)	> 100 µM (inactive)	50.7 µM (inactive)	> 100 µM (inactive)	> 100 µM (inactive)	> 100 µM (inactive)	–	–	–	–	–
COc1cc(C2c3cccc4cccc(c34)C3CCC(=O)N32)cc(O)c1O (configuration not stated)	20.9 µM (inactive)	44.2 µM (inactive)	26.9 µM (inactive)	–	10.8 µM (inactive)	39.9 µM (inactive)	–	24.7 µM (inactive)	41 µM (inactive)	> 50 µM (inactive)	19 µM (inactive)	> 50 µM (inactive)	–	> 50 µM (inactive)	> 50 µM (inactive)	–	19.2 µM (inactive)	34.4 µM (inactive)	–	22.3 µM (inactive)
CCCCCCNCCc1c[nH]cn1	> 100 µM (inactive)	> 100 µM (inactive)	> 100 µM (inactive)	> 100 µM (inactive)	> 100 µM (inactive)	> 100 µM (inactive)	> 100 µM (inactive)	> 100 µM (inactive)	> 100 µM (inactive)	> 100 µM (inactive)	> 100 µM (inactive)	> 100 µM (inactive)	> 100 µM (inactive)	> 100 µM (inactive)	> 100 µM (inactive)	> 100 µM (inactive)	> 100 µM (inactive)	> 100 µM (inactive)	> 100 µM (inactive)	–
COc1cc(C2c3cc4c(cc3[C@@H](Nc3ccc(N(C)C)cc3)[C@H]3COC(=O)C23)OCO4)cc(OC)c1O (some centres not stated)	0.316 µM (active)	0.228 µM (active)	3.56 µM (inactive)	1.41 µM (inactive)	0.537 µM (active)	0.122 µM (active)	0.873 µM (active)	2.23 µM (inactive)	0.34 µM (active)	1.85 µM (inactive)	0.149 µM (active)	0.36 µM (active)	0.141 µM (active)	0.0545 µM (active)	0.049 µM (active)	–	–	–	–	–
